Reference: patent publication US20250313559A1 (Bayer Aktiengesellschaft, priority 2024, published 2025)
Like-named read-outs stand apart in the source and are kept apart here.

Columns and labels:
[1] = tested on: patients with heart failure and a left ventricular ejection fraction ≥40%
[2] = tested on: patients with HF and LVEF ≥40%; assay: […]-HF (Example 2) health status: KCCQ-TSS, NYHA class, EQ-5D-5L; format: in vivo, human; conditions: adjusted for baseline value, geographic region
Method: Kansas City Cardiomyopathy Questionnaire (KCCQ) is a standardized patient reported outcomes (PRO) questionnaire which assesses symptoms, physical and social limitations, and quality of life in patients with heart failure (HF). Patients are asked to recall how their HF impacted their life over a 2-week recall period.
Total HF events was analyzed using an LWYY model in a similar fashion to the primary endpoint. The percentage of participants with improvement in NYHA class from Baseline to Month 12, was analyzed with a logistic regression model including factors for treatment group and stratification levels. Patients that died or are lost to follow-up at month 12 was considered to had not improved. The absolute change from baseline including measurements up to Month 12 of the TSS of the KCCQ, was analyzed by a repeated measures mixed model including the factors treatment group, baseline, visit, baseline-by-visit interaction, and factors for the stratification levels. The comparison assumed a common treatment effect across Month 6, 9 and 12. […] The composite renal endpoint and all-cause mortality was analyzed using a stratified log-rank test for testing and a stratified Cox proportional hazards model for obtaining a point estimate with 95% confidence interval. […]

[3] = cited from earlier work
[4] = tested on: participants with chronic kidney disease and Type-2 diabetes; conditions: cited from earlier work
[5] = tested on: preclinical cardiorenal models; conditions: preclinical cardiorenal models which develop heart failure; cited from earlier work
[6] = tested on: patients across cardio-kidney-metabolic disease states
[7] = FINE-HEART pooled safety population, finerenone n = 9,482, treatment-emergent
[8] = FINE-HEART pooled safety population, n = 9,482
[9] = FINE-HEART pooled, n = 9,482, investigator reported adverse events

With `CCOc1ncc(C)c2c1[C@H](c1ccc(C#N)cc1OC)C(C(N)=O)=C(C)N2` [finerenone, (4S)-4-(4-cyano-2-methoxyphenyl)-5-ethoxy-2,8-dimethyl-1,4-dihydro-1,6-naphthyridine-3-carboxamide] the “Kidney composite outcome - %” value ([1]; finerenone group) was “(2.5%)”, the “Death from cardiovascular causes - %” value ([1]; finerenone group N = 3,003) was “(8.1%)” and the “Number of subjects with AE of death or leading to death: COVID-19” value ([1]; n = 2,993) was 7. The “Number of subjects with AE of death or leading to death: COVID-19 pneumonia” value ([1]; n = 2,993) was 9, the “Number of subjects with AE of death or leading to death: Cardiac arrest” value ([1]; n = 2,993) was 12 and the “Number of subjects with AE of death or leading to death: Cardiac failure” value ([1]; n = 2,993) was 6. The “Number of subjects with AE of death or leading to death: Death” value ([1]; n = 2,993) was 70, the “Number of subjects with AE of death or leading to death: Lung neoplasm malignant” value ([1]; n = 2,993) was 7 and the “Number of subjects with AE of death or leading to death: Pneumonia” value ([1]; n = 2,993) was 27. For the same compound, the “Number of subjects with AE of death or leading to death: Respiratory failure” value ([1]; n = 2,993) was 7, the “Number of subjects with AE of death or leading to death: Sepsis” value ([1]; n = 2,993) was 19 and the “Number of subjects with AE of death or leading to death: Septic shock” value ([1]; n = 2,993) was 12. For the same compound, the “Number of subjects with AE of death or leading to death: Sudden cardiac death” value ([1]; n = 2,993) was 18, the “Number of subjects with AE of death or leading to death: Sudden death” value ([1]; n = 2,993) was 20 and the “Number of subjects with a treatment-emergent SAE: COVID-19” value ([1]; n = 2,993) was 69. The “Number of subjects with a treatment-emergent SAE: COVID-19 pneumonia” value ([1]; n = 2,993) was 28, the “Number of subjects with a treatment-emergent SAE: Death” value ([1]; n = 2,993) was 29 and the “Number of subjects with a treatment-emergent SAE: Sepsis” value ([1]; n = 2,993) was 25. The “Number of subjects with a treatment-emergent SAE: Sudden death” value ([1]; n = 2,993) was 16, the “Number of subjects with a treatment-emergent SAE: Urinary tract infection” value ([1]; n = 2,993) was 29 and the “Subjects with AE of death or leading to death (%): COVID-19” value ([1]; n = 2,993) was “(0.2%)”. The “Subjects with AE of death or leading to death (%): COVID-19 pneumonia” value ([1]; n = 2,993) was “(0.3%)”, the “Subjects with AE of death or leading to death (%): Cardiac arrest” value ([1]; n = 2,993) was “(0.4%)” and the “Subjects with AE of death or leading to death (%): Cardiac failure” value ([1]; n = 2,993) was “(0.2%)”. For the same compound, the “Subjects with AE of death or leading to death (%): Death” value ([1]; n = 2,993) was “(2.3%)”, the “Subjects with AE of death or leading to death (%): Lung neoplasm malignant” value ([1]; n = 2,993) was “(0.2%)” and the “Subjects with AE of death or leading to death (%): Pneumonia” value ([1]; n = 2,993) was “(0.9%)”. The “Subjects with AE of death or leading to death (%): Respiratory failure” value ([1]; n = 2,993) was “(0.2%)”, the “Subjects with AE of death or leading to death (%): Sepsis” value ([1]; n = 2,993) was “(0.6%)” and the “Subjects with AE of death or leading to death (%): Septic shock” value ([1]; n = 2,993) was “(0.4%)”. The “Subjects with AE of death or leading to death (%): Sudden cardiac death” value ([1]; n = 2,993) was “(0.6%)”, the “Subjects with AE of death or leading to death (%): Sudden death” value ([1]; n = 2,993) was “(0.7%)” and the “Subjects with a treatment-emergent SAE (%): COVID-19” value ([1]; n = 2,993) was 2.3%. For the same compound, the “Subjects with a treatment-emergent SAE (%): COVID-19 pneumonia” value ([1]; n = 2,993) was 0.9%, the “Subjects with a treatment-emergent SAE (%): Death” value ([1]; n = 2,993) was 1.0% and the “Subjects with a treatment-emergent SAE (%): Sepsis” value ([1]; n = 2,993) was 0.8%. The “Subjects with a treatment-emergent SAE (%): Sudden death” value ([1]; n = 2,993) was 0.5%, the “Subjects with a treatment-emergent SAE (%): Urinary tract infection” value ([1]; n = 2,993) was 1.0% and the “Hyperkalemia leading to Death - %” value ([1]; through the end of study) was “(0%)”. The “Hyperkalemia leading to Death - no.” value ([1]; through the end of study) was 0, the “Hyperkalemia leading to Death - %” value ([1]; treatment emergent) was “(0%)” and the “Hyperkalemia leading to Death - no.” value ([1]; treatment emergent) was 0. The “Change in KCCQ-TSS from baseline to 12 months, difference in mean (95% CI) finerenone vs placebo” value ([2]; bilirubin Tertile 2 0.5-0.6 mg/dL) was 0.69 (−0.92 to 2.30), the “Change in KCCQ-TSS from baseline to 12 months, difference in mean (95% CI) finerenone vs placebo” value ([2]; bilirubin Tertile 3 ≥0.7 mg/dL) was 3.15 (1.52 to 4.77) and the “tissue distribution between the heart and kidney” value ([3]; compared with steroidal mineralocorticoid receptor antagonists) was “more balanced”. For the same compound, the renal elimination ([3]; in vivo) was “less than 1%”, the “cardiovascular events, including heart failure hospitalizations” value [4] was “reduced” and the kidney disease progression [4] was “reduced”. For the same compound, the “systolic and diastolic function” value [5] was “improvement”, the “Any adverse event leading to treatment discontinuation, % of patients” value ([6]; FINE-HEART pooled safety population, finerenone n = 9,482) was “(5.4%)” and the “Any serious adverse event, % of patients” value [6, 7] was “(34.6%)”. The “Any serious adverse event, number of patients” value [6, 7] was 3,283, the “Acute kidney injury leading to hospitalization, % of patients” value [6, 8] was “(1.5%)” and the “Acute kidney injury leading to hospitalization, number of patients” value [6, 8] was 143. For the same compound, the “Acute kidney injury leading to treatment discontinuation, % of patients” value [6, 8] was “(0.2%)”, the “Acute kidney injury leading to treatment discontinuation, number of patients” value [6, 8] was 15 and the “Acute kidney injury, % of patients” value [6, 8] was “(3.6%)”. For the same compound, the “Gynecomastia or breast hyperplasia, % of patients” value [6, 8] was “(0.2%)”, the “Gynecomastia or breast hyperplasia, number of patients” value [6, 8] was 16 and the “Systolic blood pressure<100 mmHg, % of patients” value [6, 8] was “(11.1%)”. The “Systolic blood pressure<100 mmHg, number of patients” value [6, 8] was 1,040, the “Any potassium >6.0 mmol/L, % of patients” value ([6]; FINE-HEART pooled, n = 9,482, central laboratory measurements) was “(3.3%)” and the “Hyperkalemia leading to death, % of patients” value [6, 9] was “(0.0%)”. For the same compound, the “Hyperkalemia leading to death, number of patients” value [6, 9] was 0, the “Hyperkalemia leading to hospitalization, % of patients” value [6, 9] was “(0.8%)” and the “Hyperkalemia leading to hospitalization, number of patients” value [6, 9] was 80. The “Hyperkalemia leading to treatment discontinuation, % of patients” value [6, 9] was “(1.3%)”, the “Hyperkalemia, % of patients” value [6, 9] was “(12.8%)” and the “Hyperkalemia, number of patients” value [6, 9] was 1,216.
